Assay results published in patent publication US4288609A, “Quaternary ammonium derivatives of adamantane with antimicrobic activity” (priority 1976, dated 1981).

Columns and labels:
[1] = tested on: Candida Albicans SKF 2270; test: Speed of sterilising action, Candida Albicans (Table 3); format: cell-based
Description: (§1) The strains, inoculants, culture broths and experimental methods are as already seen for calculating the M.I.C. in vitro. The antimicrobic substances were tested at concentrations of 0.1, 0.25, 0.5 and 1 g/l, the contact times taken into consideration are 0, 1, 2.5, 5, 7.5, 10, 15, 30 and 60 minutes.
(§2) The samples which at the 7th day of incubation still had no growth of micro-organisms which could be observed macroscopically and/or microscopically were considered sterile.
(§3) The results are recorded in Table 3 in terms of sterilization time expressed in minutes.

[2] = tested on: Trichomonas Vaginalis ISM 66/22; test: Speed of sterilising action, Trichomonas Vaginalis (Table 3); format: cell-based
Description: as §1, §2, §3

Pseudomonas Aeruginosa = test: Antibacterial activity in vivo with topical treatment (Table 5); parameters: species or system female CF1 albino mice; conditions: for animals alive on the 15th day / animals dead on the 15th day: 10 animals; for % survivors: topical, 15th day
Description: After their backs have been shaved, female CF1 albino mice weighing 18-22 g are scorched (under ether anaesthetic) for 15 seconds with a pad of brass previously immersed in boiling water (7-8% of the body surface). After 90 minutes there is applied to the scorched area 0.1 ml of a suspension of Pseudomonas Aeruginosa bacteria having 15% transmittance at 650 nm. The bacterial strain in question produces a high incidence of mortality, induced by septicemic diffusion from the point of infection. After 90 minutes, with the aid of a glass rod suitably flattened at one end, the preparation containing a known concentration of the compound under examination is applied locally. The treatment is continued for a total of six days (once per day). On the fifteenth day the percentage of survivors to the tested doses in recorded.
The carrier used for applying the compounds under examination is an aqueous 0.75% solution of carboxymethyl-cellulose. The concentrations of the compounds tested are 2, 1, 0.5 and 0.25% by weight.

Esch. Coli. SKF 12140 = test: M.I.C. in vitro, gram- Esch. Coli (Table 1); format: cell-based, Escherichia Coli; conditions: for MIC: Escherichia coli
Description: (§4) The method for evaluating the activity in vitro against bacteria, fungi and protozoa consists in introducing calculated quantities of the substance, the activity of which it is desired to test, into culture media already inoculated with a predetermined number of test germs.
(§5) After 24 or 48 hours of incubation at 30° or 37° C., according to the micro-organism being tested, it is possible to evaluate the growth of the same in the culture broth; in this manner the minimum concentration (M.I.C.) which inhibits the growth of the micro-organisms in vitro is determined.
(§6) In table 1 there are recorded the M.I.C. values in γ/ml of the products subject of the present invention, against certain gram+ and gram- bacterial strains, some of which are pathogenic towards human beings.

[3] = tested on: Trichophyton Mentagrophytes; test: Topical activity upon dermatophytis from Trichophyton in cavies (Table 6); format: in vivo, Albino cavies
Description: Albino cavies of 250-300 g are infected, after depilation and scarification of a circular area of dorsal skin upon which there are supplied 0.1 ml of a suspension of microconidia of Trichophyton Mentagrophytes from the Pasteur Institute collection, obtained from a culture of 15 days upon Saboureaud agar. 24 Hours after infection topical treatment is started and is continued for two weeks (once per day).
The compounds to be tested are dissolved or suspended at the desired concentration, in a water-alcohol mixture (75/25 v/v) containing 0.75% by weight of carboxymethyl-cellulose (CMC). […] Each single application is carried out using 0.25 ml of the suspension or solution obtained as described above.
Fourteen days after infection the lesions are assessed. Assessment is carried out by attributing index numbers depending upon the seriousness of the lesions formed, as follows:
The substances under examination were tested at concentrations of 5 and 2.5% by weight.

Candida albicans = test: Activity upon vaginal candidiasis in mice (Table 7); format: in vivo, female Swiss mice (Charles River CD1); conditions: for no. of animals surviving: 8 animals
Description: The treatment groups consist each of 8 female Swiss mice (Charles River CD1) of average weight 20 g. The animals are infected with 0.025 ml of a 24 hour culture of Candida albicans, equal to 10^6 cellules.
0.025 ml of a suspension in lanoline of the compound to be tested, at the desired concentration, are applied locally twice a day for a week, the first treatment being started five hours after infection.
The control group is treated with the lanoline alone in the same way. On the eighth day vaginal washings are carried out with 0.025 ml of sterile physiological solution, and the liquid is sown in Petri dishes containing Bacto Biggy Agon Difco as a selective growing medium for the Candida.
After 48 hours of incubation of the dishes at 30° C. a count is taken of the colonies which have grown. Assessment of the activity is quantized using the indices listed here below:
The results are expressed as percentages of the average index of seriousness of the infection A.D.I. (Average Degree of Infection) in the animals treated with respect to the animals in the control group.
The substances under examination were tested at concentrations of 5 and 3% by weight.

Proteus Vulc. ATCC 881 = test: M.I.C. in vitro, gram- Proteus Vulc. (Table 1); format: cell-based
Description: as §4, §5, §6

[4] = tested on: Escherichia Coli SKF 12140; test: Speed of sterilising action, Escherichia Coli (Table 3); format: cell-based
Description: as §1, §2, §3

Pseudom.Aer. ATCC 1014 = test: M.I.C. in vitro, gram- Pseudom. Aer. (Table 1); format: cell-based, Pseudomonas Aeruginosa; conditions: for MIC: Pseudomonas aeruginosa
Description: as §4, §5, §6

Staph.Aureus Tour = test: M.I.C. in vitro, gram+ Staph. Aureus (Table 1); format: cell-based, Staphylococcus Aureus; conditions: for MIC: Staphylococcus aureus
Description: as §4, §5, §6

[5] = tested on: Trichophyton Mentagrophytes Ist. Pasteur; test: Speed of sterilising action, Trichophyton Mentagrophytes (Table 3); format: cell-based
Description: as §1, §2, §3

Klens. Pneum. ISM = test: M.I.C. in vitro, gram- Klens. Pneum. (Table 1); format: cell-based
Description: as §4, §5, §6

[6] = Acute oral toxicity in mice (Table 4); conditions: mouse, in vivo, po
Description: (§7) The substances were administered orally to groups of 10 female mice CF1 of average weight of about 20 grams, in aqueous solution and in such way that the total volume administered would be in each case 1 ml/100 g of weight.

[7] = tested on: Streptococ. Henclyt. 0203; test: M.I.C. in vitro, gram+ Streptococ. Henclyt. (Table 1); format: cell-based
Description: as §4, §5, §6

Diplococcus Pneum. ISM = test: M.I.C. in vitro, gram+ Diplococcus Pneum. (Table 1); format: cell-based
Description: as §4, §5, §6

[8] = tested on: Staphylococcus Aureus Tour; test: Speed of sterilising action, Staphylococcus Aureus (Table 3); format: cell-based
Description: as §1, §2, §3

[9] = tested on: Candida Pseudotrop. ATCC 2512; test: MIC yeasts, Candida pseudotropicalis (Table 2); format: cell-based; conditions: Sabourand broth
Description: as §4, §5
(§8) Inoculation with Candida albicans or Candida pseudotropicalis was made by diluting cultures grown for 24 h at 30° C. (cellular density inoculated 10^3 /ml).
(§9) For the fungi Sabourand broth was used as a culture medium, whilst for the protozoa Kupferberg Trichomonas broth with 5% of horse serum was used.

[10] = tested on: Trych. Mentagr. 1st.Pastuer; test: MIC mildews, Trichophyton mentagrophytes (Table 2); format: cell-based; conditions: Sabourand broth
Description: as §4, §5
(§10) Inoculation with Trichophyton mentagrophytes and Microsporum canis was effected in a ratio of 1% of the volume of medium used.
as §9

[11] = tested on: Trich. Vaginalis ISM 66/22; test: MIC protozoa, Trichomonas vaginalis (Table 2); format: cell-based; conditions: +10% serum (head); Kupferberg Trichomonas broth with 5% of horse serum
Description: as §4, §5
(§11) Inoculation with Trichomonas vaginalis and Trichomonas foetus, obtained from cultures transplanted every other day to make them lively, was effected in a ratio of 3.5% of the volume of medium used.
as §9

mice = test: Acute oral toxicity in mice (Table 4); conditions: oral, mice, 14 days
Description: as §7

Candida Albic. SKF 2270 = test: MIC yeasts, Candida albicans (Table 2); format: cell-based; conditions: Sabourand broth
Description: as §4, §5, §8, §9

Trich. Foetus ISM 66/23 = test: MIC protozoa, Trichomonas foetus (Table 2); format: cell-based; conditions: +10% serum (head); Kupferberg Trichomonas broth with 5% of horse serum
Description: as §4, §5, §11, §9

[12] = tested on: Nicrosporum Canis ATCC 11621; test: MIC mildews, Microsporum canis (Table 2); format: cell-based; conditions: Sabourand broth
Description: as §4, §5, §10, §9

CCCCCCCCCCCCCCCC[n+]1ccccc1 [Cetyl pyridine chloride, cetyl pyridine chloride, reference compound]
sterilization time ([1]; 0.1 g/l): 60 min | sterilization time ([1]; 0.25 g/l): 10 min | sterilization time ([1]; 0.5 g/l): 10 min | sterilization time ([1]; 1 g/l): 10 min | sterilization time ([2]; 0.1 g/l): 5 min | sterilization time ([2]; 0.25 g/l): 2.5 min | sterilization time ([2]; 0.5 g/l): 1 min | sterilization time ([2]; 1 g/l): 1 min | animals alive on the 15th day (Pseudomonas Aeruginosa; 0.25% by weight): 1 | animals dead on the 15th day (Pseudomonas Aeruginosa; 0.25% by weight): 9 | % survivors (Pseudomonas Aeruginosa; 0.25% by weight): 10% | animals alive on the 15th day (Pseudomonas Aeruginosa; 0.5% by weight): 3 | animals dead on the 15th day (Pseudomonas Aeruginosa; 0.5% by weight): 7 | % survivors (Pseudomonas Aeruginosa; 0.5% by weight): 30% | animals alive on the 15th day (Pseudomonas Aeruginosa; 1% by weight): 2 | animals dead on the 15th day (Pseudomonas Aeruginosa; 1% by weight): 8 | % survivors (Pseudomonas Aeruginosa; 1% by weight): 20% | animals alive on the 15th day (Pseudomonas Aeruginosa; 2% by weight): 4 | animals dead on the 15th day (Pseudomonas Aeruginosa; 2% by weight): 6 | % survivors (Pseudomonas Aeruginosa; 2% by weight): 40% | MIC (Esch. Coli. SKF 12140; +10% serum): > 100 µg/mL | MIC (Esch. Coli. SKF 12140; without serum): 5 µg/mL | A.D.I. (% of control group) ([3]; 2.5% by weight): 81.27% | healing % (100-A.D.I. %) ([3]; 2.5% by weight): 18.73% | A.D.I. (% of control group) ([3]; 5% by weight): 49.81% | healing % (100-A.D.I. %) ([3]; 5% by weight): 50.19% | evaluation of seriousness of infection (A.D.I.) ([3]; 5% by weight, average index): 1.33 | % of healing (100-A.D.I. %) (Candida albicans; 3% by weight): 15.97% | A.D.I. (compared with controls) (Candida albicans; 3% by weight): 84.03% | no. of animals surviving (Candida albicans; 3% by weight): 6 | no. of animals surviving (Candida albicans; 5% by weight): 2 | death of treated animals (Candida albicans; highest dose, before the end of the experiment): 75% | mortality (Candida albicans; lower dose): 25% | MIC (Proteus Vulc. ATCC 881; +10% serum): > 100 µg/mL | MIC (Proteus Vulc. ATCC 881; without serum): 20 µg/mL | sterilization time ([4]; 0.1 g/l): > 60 min | sterilization time ([4]; 0.25 g/l): > 60 min | sterilization time ([4]; 0.5 g/l): > 60 min | sterilization time ([4]; 1 g/l): > 60 min | MIC (Pseudom.Aer. ATCC 1014; ATCC1014, +10% serum): > 200 µg/mL | MIC (Pseudom.Aer. ATCC 1014; ATCC1014, without serum): 200 µg/mL | MIC (Staph.Aureus Tour; +10% serum): 10 µg/mL | MIC (Staph.Aureus Tour; without serum): 0.1 µg/mL | sterilization time ([5]; 0.1 g/l): 60 min | sterilization time ([5]; 0.25 g/l): 60 min | sterilization time ([5]; 0.5 g/l): 30 min | sterilization time ([5]; 1 g/l): 5 min | MIC (Klens. Pneum. ISM; +10% serum): > 100 µg/mL | MIC (Klens. Pneum. ISM; without serum): 5 µg/mL | LD50 at 336 h [6]: 275 mg/kg | MIC ([7]; +10% serum): 5 µg/mL | MIC ([7]; without serum): 0.5 µg/mL | MIC (Diplococcus Pneum. ISM; +10% serum): 10 µg/mL | MIC (Diplococcus Pneum. ISM; without serum): 1 µg/mL | sterilization time ([8]; 0.1 g/l): 7.5 min | sterilization time ([8]; 0.25 g/l): 2.5 min | sterilization time ([8]; 0.5 g/l): 1 min | sterilization time ([8]; 1 g/l): 1 min

CCCCCCCCCC[N+](C)(C)CCOC(=O)C12CC3CC(CC(C3)C1)C2 (single isomer, unassigned) [Example 2, n-Decyl-dimethyl-(1-adamantane-carboxy)-ethyl-ammonium chloride]
MIC ([9]; +10% serum): 50 µg/mL | MIC ([9]; without serum): 0.5 µg/mL | MIC ([10]; +10% serum): 20 µg/mL | MIC ([10]; without serum): 0.5 µg/mL | M.I.C. (Esch. Coli. SKF 12140; +10% serum): 100 µg/mL | M.I.C. (Esch. Coli. SKF 12140; without serum): 10 µg/mL | MIC [11]: 20 µg/mL | M.I.C. (Proteus Vulc. ATCC 881; +10% serum): 100 µg/mL | M.I.C. (Proteus Vulc. ATCC 881; without serum): 20 µg/mL | M.I.C. (Pseudom.Aer. ATCC 1014; +10% serum): 100 µg/mL | M.I.C. (Pseudom.Aer. ATCC 1014; without serum): 50 µg/mL | M.I.C. (Staph.Aureus Tour; +10% serum): 5 µg/mL | M.I.C. (Staph.Aureus Tour; without serum): 0.2 µg/mL | M.I.C. (Klens. Pneum. ISM; +10% serum): 100 µg/mL | M.I.C. (Klens. Pneum. ISM; without serum): 20 µg/mL | LD50 (mice): 1020 mg/kg | M.I.C. ([7]; +10% serum): 1 µg/mL | M.I.C. ([7]; without serum): 0.2 µg/mL | MIC (Candida Albic. SKF 2270; +10% serum): 50 µg/mL | MIC (Candida Albic. SKF 2270; without serum): 5 µg/mL | M.I.C. (Diplococcus Pneum. ISM; +10% serum): 10 µg/mL | M.I.C. (Diplococcus Pneum. ISM; without serum): 2 µg/mL | MIC (Trich. Foetus ISM 66/23): 10 µg/mL | MIC ([12]; +10% serum): 20 µg/mL | MIC ([12]; without serum): 0.5 µg/mL
